Results from PMC10580383, “Development of Melanocortin 4 Receptor Agonists by Exploiting Animal-Derived Macrocyclic, Disulfide-Rich Peptide Scaffolds” (ACS Pharmacology & Translational Science, 2023).
Read-outs that look alike come from different tables or passages of the source. Each block holds one molecule with its values, some of them ahead of it. Where a SMILES comes first, the peptide text is derived from it. Bridges are numbered along the chain shown (N, C = ends). Where no end group is shown, it is not given here. [ ]: non-standard residue; d: D form. pGlu = O=C1CC[C@@H](C(=O)O)N1

Tests used:
[1] = molecular target: T1, mouse melanocortin 4 receptor (MC4R) (Mus musculus, UniProt P56450); test: cAMP second messenger quantification assay (Cisbio HTRF cAMP Gs kit); type: cell-based
T1 construct: expressed in transfected cells; host or cells: HEK293 / HEK293T, transient transfection
T1 sequence (P56450 whole entry): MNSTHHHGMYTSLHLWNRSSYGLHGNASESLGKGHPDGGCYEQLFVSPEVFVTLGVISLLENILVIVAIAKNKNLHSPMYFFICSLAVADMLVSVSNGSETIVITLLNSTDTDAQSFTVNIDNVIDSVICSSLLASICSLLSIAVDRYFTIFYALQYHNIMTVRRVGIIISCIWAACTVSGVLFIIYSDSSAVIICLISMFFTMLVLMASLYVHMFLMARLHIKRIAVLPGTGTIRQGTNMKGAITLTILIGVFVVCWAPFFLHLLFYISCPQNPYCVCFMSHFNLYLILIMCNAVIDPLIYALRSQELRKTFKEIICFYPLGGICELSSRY
Description: Figure 3 Functional cAMP assay of synthesized peptide analogues targeting MC4R. The accumulation of adenylyl cyclase-catalyzed cAMP of (A) tachylplesin-1-like peptides (Ta1LPs, green), (B) protegrin-4-like peptides ([…], pink), (C) arenicin-3-like peptides (Ar3LPs, orange), and (D) gomesin-like peptides (GoLPs, blue) was measured in HEK293 cells transiently expressing mouse melanocortin 4 receptor (MC4R). […] Data are from three independent experiments and are shown as mean ± SEM.
Assays were performed on cells transiently expressing mouse MC4R-EGFP. BamHI and SacI restriction sites were used to clone mouse MC4R N-terminally into a pEGFP-N1 vector. Peptide ligands were assayed for […] in a 384-well format and triplicate according to the Cisbio protocol. Briefly, 5 μL containing 10,000 cells per well was incubated with 5 μL of peptide solutions prepared 2× in 1× stimulation buffer. Following an incubation of peptide ligands at 37 °C for 30 min, d2-labeled cAMP and cryptate-labeled antibody (5 μL of each) were added to the mixture and further incubated for at least 1 h at room temperature. Subsequently, cAMP levels were quantified on a Flexstation 3 (Molecular Devices, San Jose, USA) using homogeneous time-resolved fluorescence resonance energy transfer and the ratio 665/620 nm. Samples were measured in technical triplicates.
Data analysis was performed with GraphPad Prism (GraphPad Software, San Diego). The potency (EC50) and maximum efficacy (Emax) values of peptide ligands were derived from functional data fitted to three- or four-parameter nonlinear regression curves constrained to a bottom of zero.

[2] = molecular target: mouse melanocortin 4 receptor fused to EGFP (mouse) (UniProt P56450)
Sequence of mouse melanocortin 4 receptor fused to EGFP (mouse) (P56450 whole entry, the tested form may be a part): as the sequence (P56450 whole entry) above

[3] = HEK293, read-out: efficacy cAMP Emax ± SD

Molecule: CC(C)[C@@H]1NC(=O)[C@H](CCCNC(=N)N)NC(=O)[C@H](Cc2c[nH]c3ccccc23)NC(=O)[C@H](Cc2c[nH]cn2)NC(=O)[C@@H](Cc2ccccc2)NC(=O)[C@H](Cc2c[nH]cn2)NC(=O)[C@@H]2CCCN2C(=O)[C@H](C(C)C)NC(=O)[C@@H]2CSSC[C@H](NC1=O)C(=O)N[C@@H](Cc1ccc(O)cc1)C(=O)N[C@@H](CCCNC(=N)N)C(=O)N[C@@H](CCCNC(=N)N)C(=O)N[C@H](C(=O)N[C@@H](CC(N)=O)C(N)=O)CSSC[C@H](NC(=O)[C@H](Cc1ccccc1)NC(=O)CN)C(=O)N[C@@H](Cc1c[nH]c3ccccc13)C(=O)N[C@@H](Cc1ccc(O)cc1)C(=O)N[C@@H](C(C)C)C(=O)N2 [Ar3LP3] (H-GFCWYVCVPH[dF]HWRVCYRRCN-NH2; disulfide 3-20, 7-16)
EC50 [1]: 1000 nM
Emax ([1]; HEK293; read-out: efficacy cAMP Emax ± SD): 117 ± 18%

Molecule: CC(C)C[C@@H]1NC(=O)[C@H](CCCNC(=N)N)NC(=O)[C@H](CCCNC(=N)N)NC(=O)[C@@H](NC(=O)[C@@H]2CCC(=O)N2)CSSC[C@@H](C(=O)N[C@@H](CCCNC(=N)N)C(=O)NCC(=O)N[C@@H](CCCNC(=N)N)C(N)=O)NC(=O)[C@H](Cc2ccc(O)cc2)NC(=O)[C@H]([C@@H](C)O)NC(=O)[C@H](C(C)C)NC(=O)[C@@H]2CSSC[C@H](NC1=O)C(=O)N[C@@H](Cc1c[nH]cn1)C(=O)N[C@H](Cc1ccccc1)C(=O)N[C@@H](CCCNC(=N)N)C(=O)N[C@@H](Cc1c[nH]c3ccccc13)C(=O)N2 [GoLP3] ([pGlu]CRRLCH[dF]RWCVTYCRGR-NH2; disulfide 2-15, 6-11)
EC50 [1]: 39.8 nM
Emax [1, 3]: 104 ± 5%

Molecule: CC(C)C[C@H](NC(=O)[C@H](CCCNC(=N)N)NC(=O)CNC(=O)CNC(=O)[C@@H](N)CCCNC(=N)N)C(=O)N[C@H]1CSSC[C@@H](C(=O)N[C@H](C(=O)NCC(=O)N[C@@H](CCCNC(=N)N)C(N)=O)C(C)C)NC(=O)[C@H](Cc2ccccc2)NC(=O)[C@@H]2CSSC[C@H](NC(=O)[C@H](Cc3ccc(O)cc3)NC1=O)C(=O)N[C@@H](Cc1c[nH]cn1)C(=O)N[C@H](Cc1ccccc1)C(=O)N[C@@H](Cc1c[nH]cn1)C(=O)N[C@@H](Cc1c[nH]c3ccccc13)C(=O)N2 [Pr4LP2] (H-RGGRLCYCH[dF]HWCFCVGR-NH2; disulfide 6-15, 8-13)
EC50 [1]: 158 nM
Emax [1, 3]: 97 ± 4%

Molecule: CC(C)C[C@H](NC(=O)[C@H](CCCNC(=N)N)NC(=O)CNC(=O)CNC(=O)[C@@H](N)CCCNC(=N)N)C(=O)N[C@H]1CSSC[C@@H](C(=O)N[C@H](C(=O)NCC(=O)N[C@@H](CCCNC(=N)N)C(N)=O)C(C)C)NC(=O)[C@H](Cc2ccccc2)NC(=O)[C@@H]2CSSC[C@H](NC(=O)[C@H](Cc3ccc(O)cc3)NC1=O)C(=O)N[C@@H](Cc1c[nH]cn1)C(=O)N[C@H](Cc1ccccc1)C(=O)N[C@@H](CCCNC(=N)N)C(=O)N[C@@H](Cc1c[nH]c3ccccc13)C(=O)N2 [Pr4LP3] (H-RGGRLCYCH[dF]RWCFCVGR-NH2; disulfide 6-15, 8-13)
EC50 [1]: 200 nM
Emax [1, 3]: 99 ± 6%

Molecule: CC(C)[C@@H]1NC(=O)[C@H](CCCNC(=N)N)NC(=O)[C@H](Cc2ccccc2)NC(=O)[C@@H](NC(=O)[C@H](Cc2c[nH]c3ccccc23)NC(=O)[C@@H](N)CCCCN)CSSC[C@@H](C(=O)N[C@@H](CCCNC(=N)N)C(N)=O)NC(=O)[C@H](CCCNC(=N)N)NC(=O)[C@H](CCCNC(=N)N)NC(=O)[C@H](Cc2ccc(O)cc2)NC(=O)[C@@H]2CSSC[C@H](NC1=O)C(=O)N1CCC[C@H]1C(=O)N[C@@H](Cc1c[nH]cn1)C(=O)N[C@H](Cc1ccccc1)C(=O)N[C@@H](Cc1c[nH]cn1)C(=O)N[C@@H](Cc1c[nH]c3ccccc13)C(=O)N2 [Ta1LP1] (H-KWCFRVCPH[dF]HWCYRRCR-NH2; disulfide 3-17, 7-13)
EC50 [1]: 20 nM
Emax [1, 3]: 97 ± 4%

Molecule: CC(C)[C@@H]1NC(=O)[C@H](CCCNC(=N)N)NC(=O)[C@H](Cc2ccccc2)NC(=O)[C@@H](NC(=O)[C@H](Cc2c[nH]c3ccccc23)NC(=O)[C@@H](N)CCCCN)CSSC[C@@H](C(=O)N[C@@H](CCCNC(=N)N)C(N)=O)NC(=O)[C@H](CCCNC(=N)N)NC(=O)[C@H](CCCNC(=N)N)NC(=O)[C@H](Cc2ccc(O)cc2)NC(=O)[C@@H]2CSSC[C@H](NC1=O)C(=O)N[C@@H](Cc1c[nH]cn1)C(=O)N[C@H](Cc1ccccc1)C(=O)N[C@@H](Cc1c[nH]cn1)C(=O)N[C@@H](Cc1c[nH]c3ccccc13)C(=O)N2 [Ta1LP2] (H-KWCFRVCH[dF]HWCYRRCR-NH2; disulfide 3-16, 7-12)
EC50 [1]: 50.1 nM
Emax [1, 3]: 97 ± 6%

Molecule: CC(C)[C@@H]1NC(=O)[C@H](CCCNC(=N)N)NC(=O)[C@H](Cc2ccccc2)NC(=O)[C@@H](NC(=O)[C@H](Cc2c[nH]c3ccccc23)NC(=O)[C@@H](N)CCCCN)CSSC[C@@H](C(=O)N[C@@H](CCCNC(=N)N)C(N)=O)NC(=O)[C@H](CCCNC(=N)N)NC(=O)[C@H](CCCNC(=N)N)NC(=O)[C@H](Cc2ccc(O)cc2)NC(=O)[C@@H]2CSSC[C@H](NC1=O)C(=O)N[C@@H](Cc1c[nH]cn1)C(=O)N[C@H](Cc1ccccc1)C(=O)N[C@@H](CCCNC(=N)N)C(=O)N[C@@H](Cc1c[nH]c3ccccc13)C(=O)N2 [Ta1LP3] (H-KWCFRVCH[dF]RWCYRRCR-NH2; disulfide 3-16, 7-12)
EC50 [1]: 16.7 nM
Emax [1, 3]: 98 ± 4%

cAMP accumulation (Cisbio HTRF) in HEK293 cells transiently expressing mouse MC4R-EGFP: EC50 [2]: 0.04 nM
cAMP accumulation (Cisbio HTRF) in HEK293 cells transiently expressing mouse MC4R-EGFP: Emax (normalised to NDP-α-MSH) [2]: 100%
Molecule: NDP-α-MSH (peptide)

cAMP accumulation (Cisbio HTRF) in HEK293 cells transiently expressing mouse MC4R-EGFP: EC50 [2]: 20 nM
cAMP accumulation (Cisbio HTRF) in HEK293 cells transiently expressing mouse MC4R-EGFP: Emax (normalised to NDP-α-MSH) [2]: 97%
B1: tachyplesin-1-like peptide 1 (peptide)
peptide: KWCFRVCPH[dF]HWCYRRCR-NH2
modifications: disulfide 7-13, 3-17; N-terminus assumed
SMILES: CC(C)[C@@H]1NC(=O)[C@H](CCCNC(=N)N)NC(=O)[C@H](Cc2ccccc2)NC(=O)[C@@H](NC(=O)[C@H](Cc2c[nH]c3ccccc23)NC(=O)[C@@H](N)CCCCN)CSSC[C@@H](C(=O)N[C@@H](CCCNC(=N)N)C(N)=O)NC(=O)[C@H](CCCNC(=N)N)NC(=O)[C@H](CCCNC(=N)N)NC(=O)[C@H](Cc2ccc(O)cc2)NC(=O)[C@@H]2CSSC[C@H](NC1=O)C(=O)N1CCC[C@H]1C(=O)N[C@@H](Cc1c[nH]cn1)C(=O)N[C@H](Cc1ccccc1)C(=O)N[C@@H](Cc1c[nH]cn1)C(=O)N[C@@H](Cc1c[nH]c3ccccc13)C(=O)N2

cAMP accumulation (Cisbio HTRF) in HEK293 cells transiently expressing mouse MC4R-EGFP: EC50 [2]: 1000 nM
cAMP accumulation (Cisbio HTRF) in HEK293 cells transiently expressing mouse MC4R-EGFP: Emax (normalised to NDP-α-MSH) [2]: 117%
B2: arenicin-3-like peptide 3 (peptide)
peptide: GFCWYVCVPH[dF]HWRVCYRRCN-NH2
modifications: disulfide 7-16, 3-20; N-terminus assumed
SMILES: CC(C)[C@@H]1NC(=O)[C@H](CCCNC(=N)N)NC(=O)[C@H](Cc2c[nH]c3ccccc23)NC(=O)[C@H](Cc2c[nH]cn2)NC(=O)[C@@H](Cc2ccccc2)NC(=O)[C@H](Cc2c[nH]cn2)NC(=O)[C@@H]2CCCN2C(=O)[C@H](C(C)C)NC(=O)[C@@H]2CSSC[C@H](NC1=O)C(=O)N[C@@H](Cc1ccc(O)cc1)C(=O)N[C@@H](CCCNC(=N)N)C(=O)N[C@@H](CCCNC(=N)N)C(=O)N[C@H](C(=O)N[C@@H](CC(N)=O)C(N)=O)CSSC[C@H](NC(=O)[C@H](Cc1ccccc1)NC(=O)CN)C(=O)N[C@@H](Cc1c[nH]c3ccccc13)C(=O)N[C@@H](Cc1ccc(O)cc1)C(=O)N[C@@H](C(C)C)C(=O)N2

cAMP accumulation (Cisbio HTRF) in HEK293 cells transiently expressing mouse MC4R-EGFP: EC50 [2]: 17 nM
cAMP accumulation (Cisbio HTRF) in HEK293 cells transiently expressing mouse MC4R-EGFP: Emax (normalised to NDP-α-MSH) [2]: 98%
B3: tachyplesin-1-like peptide 3 (peptide)
peptide: KWCFRVCH[dF]RWCYRRCR-NH2
modifications: disulfide 7-12, 3-16; N-terminus assumed
SMILES: CC(C)[C@@H]1NC(=O)[C@H](CCCNC(=N)N)NC(=O)[C@H](Cc2ccccc2)NC(=O)[C@@H](NC(=O)[C@H](Cc2c[nH]c3ccccc23)NC(=O)[C@@H](N)CCCCN)CSSC[C@@H](C(=O)N[C@@H](CCCNC(=N)N)C(N)=O)NC(=O)[C@H](CCCNC(=N)N)NC(=O)[C@H](CCCNC(=N)N)NC(=O)[C@H](Cc2ccc(O)cc2)NC(=O)[C@@H]2CSSC[C@H](NC1=O)C(=O)N[C@@H](Cc1c[nH]cn1)C(=O)N[C@H](Cc1ccccc1)C(=O)N[C@@H](CCCNC(=N)N)C(=O)N[C@@H](Cc1c[nH]c3ccccc13)C(=O)N2

cAMP accumulation (Cisbio HTRF) in HEK293 cells transiently expressing mouse MC4R-EGFP: EC50 [2]: 48 nM
cAMP accumulation (Cisbio HTRF) in HEK293 cells transiently expressing mouse MC4R-EGFP: Emax (normalised to NDP-α-MSH) [2]: 97%
B4: tachyplesin-1-like peptide 2 (peptide)
peptide: KWCFRVCH[dF]HWCYRRCR-NH2
modifications: disulfide 7-12, 3-16; N-terminus assumed
SMILES: CC(C)[C@@H]1NC(=O)[C@H](CCCNC(=N)N)NC(=O)[C@H](Cc2ccccc2)NC(=O)[C@@H](NC(=O)[C@H](Cc2c[nH]c3ccccc23)NC(=O)[C@@H](N)CCCCN)CSSC[C@@H](C(=O)N[C@@H](CCCNC(=N)N)C(N)=O)NC(=O)[C@H](CCCNC(=N)N)NC(=O)[C@H](CCCNC(=N)N)NC(=O)[C@H](Cc2ccc(O)cc2)NC(=O)[C@@H]2CSSC[C@H](NC1=O)C(=O)N[C@@H](Cc1c[nH]cn1)C(=O)N[C@H](Cc1ccccc1)C(=O)N[C@@H](Cc1c[nH]cn1)C(=O)N[C@@H](Cc1c[nH]c3ccccc13)C(=O)N2
